≈ marks a conversion by molar mass, not a printed value. Read-outs that look alike come from different tables or passages of the source.

The test system of data set [1] is Spodoptera littoralis. As to the kind of experiment: Insecticidal leaf dip bioassay on S. littoralis larvae. As to conditions: for Toxicity ratio: 72 hours, fenoxycarb's LC50 / the compound's LC50; for LC50: Spodoptera littoralis, foliar, laboratory strain, 72 hours of treatment.
Description: (§1) Five concentrations (200, 100, 50, 25, 12.5 ppm) were designed for this synthetic compound and the reference fenoxycarb's compound as the dynamic ingredients based on ppm via diluting the commercial formulation.
(§2) In this experiment, the synthetic compound was tested for its insecticidal bioactivity using the industry-standard leaf dip bioassay techniques. […] Until usage, the stocks were kept in a refrigerator. The target substance test results were noted & the concentrations needed to destroy 50% (LC50) of S. littoralis larvae were calculated. The target compound was employed in five different concentrations, & 0.1% Tween 80 was employed as a surfactant. Castor bean leaf discs (nine centimeters in diameter) were dipped in the concentration under test for ten seconds, then fed to 2th & 4th larvae, which were roughly the same size and housed in glass jars (five pound). Each action carried out 3 times with ten larvae each. The mortality equalized via Abbott's formula. Calculations of mortality setback line were measurably rummage via probity analysis. Harmfulness index was strongminded via sun equations. The mortality results of larval insect were estimated through employing probit analysis through a statistics (LDP-line) equation which estimate the LC50 values with 95% fiducially limits of lower, upper confidence limit and slope.
Data set [2] relates to Spodoptera littoralis. Particulars: in vivo.
Description: as §1, §2
A further data set relates to aquatic insects. Particulars: highly toxic to very highly toxic; cited from earlier work.

Turning to `CCOC(=O)NCCOc1ccc(Oc2ccccc2)cc1` [Fenoxycarb, fenoxycarb, reference compound], the Toxicity ratio in the data set with Spodoptera littoralis [1] (2nd instar larvae) and in the data set on Spodoptera littoralis [1] (4th instar larvae) was 1 each time. The median lethal concentration (LC50) in the data set on Spodoptera littoralis [1] (72 h, 2nd instar larvae) was found to be 2.73 µg/mL (≈ 9.06 µM); with Spodoptera littoralis [1] (72 h, 4th instar larvae) it was 9.18 µg/mL (≈ 30.5 µM).

Consider `O=C(COc1cccc2ccccc12)COc1cccc2ccccc12` [III, 1,3-bis(naphthalen-1-yloxy)propan-2-one], for which the LC50 result in the data set on Spodoptera littoralis [2] is “about 11.32 mg/L”; with Spodoptera littoralis [1] (72 h, 2nd instar larvae), 11.3 µg/mL (≈ 33.1 µM); in the data set with Spodoptera littoralis [1] (72 h, 4th instar larvae) it was approximately 17.8 µg/mL (≈ 52 µM). In addition, the “insecticidal activity against Spodoptera littoralis” value with Spodoptera littoralis [1] (2nd and 4th instar larvae, 72 h, FIGS. 1A-1B, compared with the reference insecticide) is “active”. Besides, the Toxicity ratio was 0.241 in the data set with Spodoptera littoralis [1] (2nd instar larvae) and 0.515 with Spodoptera littoralis [1] (4th instar larvae).

Turning to `CCc1ccc(C(=O)NN(C(=O)c2cc(C)cc(C)c2)C(C)(C)C)cc1` [tebufenozide], the LC50 in the data set with aquatic insects is 100 to 1000 µg/mL.

As usually defined, the LC50 is the concentration lethal to half of the exposed cells or organisms.

The values above are taken from patent publication US12048306B1, “1,3-bis(naphthalen-1-yloxy)propan-2-one as an eco-friendly insecticidal agent against Spodoptera littoralis (boisd.)” (priority 2023, dated 2024).
